In USRE40387E1, “Pharmaceutical compositions, dosage forms and methods for oral administration of epothilones” (Bristol-Myers Squibb Company, priority 2001, dated 2008):

Key:
[1] = tested on: mouse liver microsomes; assay: Oxidative metabolism in mouse liver microsomes; format: in vitro ADME; conditions: 40 :M, NADPH
Method: (§1) Upon incubation of Compound (A) (40 :M) with mouse, rat, dog, and human liver microsomes fortified with nicotinamide adenine dinucleotide phosphate (NADPH), the rate of oxidative metabolism of Compound (A) was 2.1, 0.7, 1.2 and 1.3 nmol/min/mg protein, respectively. Moreover, the metabolite distribution was similar among all species (metabolite masses included several […] and M−2 compounds). Qualitatively, there appeared to be similar production of metabolites of Compound (A) after incubation with rat or human hepatocytes compared to microsomal incubations. Products similar to those arising from the chemical degradation of Compound (A) appeared to be the major products in the hepatocyte incubations.

[2] = tested on: human liver microsomes; assay: Oxidative metabolism in human liver microsomes; format: in vitro ADME; conditions: 40 :M, NADPH
Method: as §1

[3] = biological target: CYP2C9 (Homo sapiens, UniProt P11712); assay: Inhibition of recombinant human CYP2C9 (deethylation of 3-cyano-7-ethoxycoumarin); format: in vitro ADME; conditions: recombinant human CYP isoform
Method: (§2) The ability of Compound (A) to inhibit the major human cytochrome P450s (CYPs) responsible for the metabolism of drugs was evaluated in vitro using recombinant human CYP isoforms. IC50 values for inhibition of deethylation of 3-cyano-7-ethoxycoumarin (CYP1A2, CYP2C9, CYP2C19, and CYP2D6) and for inhibition of dealkylation of benzoyl-resorufin (CYP3A4) were determined.

[4] = Excretion in bile duct cannulated rats; format: in vivo, Sprague Dawley rats; conditions: intraarterial 10 mg/kg or oral 20 mg/kg, 9 h
Method: In another study, bile duct cannulated Sprague Dawley rats (n=2 per group) received a single intraterial (10 mg/kg) or oral (20 mg/kg) dose of Compound (A), and bile, urine, and plasma samples were collected over a period of 9 h after dose. There was negligible excretion of intact Compound (A) in the bile (C 1% of the dose). There was some detectable amount of Compound (A) in the urine, but actual concentrations were not quantified due to lack of stability data for Compound (A) in the urine. Several drug-related compounds in the urine and plasma were tentatively identified by LC/MS and included an isomer (M+0), and a hydrolysis product (M+18). In addition, a metabolite (M−2) was detected in the plasma.

[5] = biological target: CYP2D6 (Homo sapiens, UniProt P10635); assay: Inhibition of recombinant human CYP2D6 (deethylation of 3-cyano-7-ethoxycoumarin); format: in vitro ADME; conditions: recombinant human CYP isoform
Method: as §2

[6] = biological target: T1, CYP3A4 (Homo sapiens, UniProt P08684); assay: Biotransformation of Compound (A) in human liver microsomes with specific CYP inhibitors; format: in vitro ADME
T1 construct: from tissue; host or cells: human liver microsomes

[7] = tested on: dog liver microsomes; assay: Oxidative metabolism in dog liver microsomes; format: in vitro ADME; conditions: 40 :M, NADPH
Method: as §1

[8] = tested on: Caco-2 cell culture system; assay: Caco-2 cell permeability
Method: The Pc of some model compounds, for which the bioavailability in humans is known, was also determined in the same experiment.

[9] = Pharmacokinetics of oral and IV Compound A in cancer patients; format: in vivo
Method: Patients with advanced malignancies were administered Compound A weekly as a 30-minute infusion (a course=3 intravenous weekly administrations). […] Serial plasma sampling was obtained on day 6 and day 1 of course 1 to assess pharmacokinetics by an LC/MS/MS. The LC/MS/MS assay was the same as used in Example 1.
Following oral administration on day 6, 7 mL blood samples was collected into Becton Dickinson Vacutainer tubes with K3EDTA as anticoagulent (lavender-colored top) according to the following schedule (expressed as hours:minutes from the start of the oral administration): predose, 00:15, 00:30, 00:45, 01:00, 01:30, 02:00, 03:00, 04:00, 06:00, 08:00, 24:00, 48:00, and 72:00. Following IV administration on day 1, 7 mL blood samples were collected into Becton Dickinson Vacutainer tubes with K3EDTA as anticoagulent (lavender-colored top) according to the following schedule (expressed as hours:minutes from the start of the IV infusion): predose, 00:15, 00:30 (end-of infusion), 00:45, 01:00, 01:30, 02:00, 03:00, 04:00, 06:00, 08:00, 24:00, 48:00, and 72:00.
Immediately after blood collection, the Vacutainer tubes were inverted several times to ensure mixing with the anticoagulant and then immediately placed on crushed ice. Within 30 minutes of collection, samples were centrifuged for 5 minutes at approximately 2000×g and 0 to 5 EC 5° C. The plasma was then transferred to separate pre-labeled screw-capped polypropylene tubes and stored at −70 EC −70° C. until bioanalysis. Plasma concentrations of Compound A were analyzed using the LC/MS/MS assay described in Example 1.
The plasma concentration versus time data were analyzed using non-compartmental methods. The pharmacokinetic parameters determined for Compound A included the maximum observed plasma concentration (Cmax), time to reach Cmax (Tmax), area under the plasma concentration time curve from time zero to the time of last sampling time T(AUC (0−T)).

[10] = 20 mg/m^2, oral solution with buffer
[11] = 25 mg/m^2, oral solution with buffer
[12] = 305 mg/m^2 as printed, oral solution with buffer

T1 sequence (P08684 whole entry): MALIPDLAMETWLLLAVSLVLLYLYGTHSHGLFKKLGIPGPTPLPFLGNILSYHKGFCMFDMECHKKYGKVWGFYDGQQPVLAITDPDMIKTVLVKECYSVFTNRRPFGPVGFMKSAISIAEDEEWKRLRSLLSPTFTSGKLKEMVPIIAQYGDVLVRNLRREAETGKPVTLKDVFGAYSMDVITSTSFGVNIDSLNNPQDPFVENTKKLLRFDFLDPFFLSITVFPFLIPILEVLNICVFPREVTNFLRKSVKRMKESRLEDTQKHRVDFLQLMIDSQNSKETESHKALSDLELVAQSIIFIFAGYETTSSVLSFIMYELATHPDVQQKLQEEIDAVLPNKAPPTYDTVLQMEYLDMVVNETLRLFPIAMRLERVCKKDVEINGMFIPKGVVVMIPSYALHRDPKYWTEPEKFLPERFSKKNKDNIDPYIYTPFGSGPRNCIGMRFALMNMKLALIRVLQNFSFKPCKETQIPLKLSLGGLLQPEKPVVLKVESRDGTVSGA
Chain of CYP2C9 (P11712 whole entry, canonical isoform): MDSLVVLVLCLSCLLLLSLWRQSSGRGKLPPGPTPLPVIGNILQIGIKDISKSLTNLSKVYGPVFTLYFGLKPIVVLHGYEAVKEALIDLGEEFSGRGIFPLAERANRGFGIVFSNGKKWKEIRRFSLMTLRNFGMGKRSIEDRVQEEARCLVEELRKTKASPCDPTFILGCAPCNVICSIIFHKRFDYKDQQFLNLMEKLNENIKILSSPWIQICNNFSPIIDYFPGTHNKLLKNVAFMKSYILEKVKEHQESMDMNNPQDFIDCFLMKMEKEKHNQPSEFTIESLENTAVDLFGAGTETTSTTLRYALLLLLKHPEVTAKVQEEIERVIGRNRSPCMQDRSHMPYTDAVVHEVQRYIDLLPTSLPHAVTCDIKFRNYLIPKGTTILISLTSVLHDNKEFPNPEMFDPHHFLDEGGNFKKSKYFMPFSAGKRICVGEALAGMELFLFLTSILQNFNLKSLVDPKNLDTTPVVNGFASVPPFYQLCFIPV
Chain of CYP2D6 (P10635 whole entry, canonical isoform): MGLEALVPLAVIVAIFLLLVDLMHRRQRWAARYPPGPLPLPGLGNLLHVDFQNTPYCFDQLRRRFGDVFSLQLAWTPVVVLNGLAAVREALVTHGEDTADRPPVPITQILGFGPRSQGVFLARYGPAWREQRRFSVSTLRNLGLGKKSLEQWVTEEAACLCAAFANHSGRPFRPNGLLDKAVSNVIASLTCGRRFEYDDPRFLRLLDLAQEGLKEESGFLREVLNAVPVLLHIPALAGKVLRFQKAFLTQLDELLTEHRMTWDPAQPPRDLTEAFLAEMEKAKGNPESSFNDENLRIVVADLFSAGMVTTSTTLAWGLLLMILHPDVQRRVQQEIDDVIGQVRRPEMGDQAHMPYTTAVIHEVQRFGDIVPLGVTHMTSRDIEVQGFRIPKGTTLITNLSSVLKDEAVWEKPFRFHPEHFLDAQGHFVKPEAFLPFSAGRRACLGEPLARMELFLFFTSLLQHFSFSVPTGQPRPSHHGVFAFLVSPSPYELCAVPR

C/C(=C\c1csc(C)n1)[C@@H]1C[C@@H]2O[C@]2(C)CCC[C@H](C)[C@H](O)[C@@H](C)C(=O)C(C)(C)[C@@H](O)CC(=O)N1 (relative stereo) [Compound (A), [1S-[1R*,3R*(E),7R*,10S*,11R*,12R*,16S*]]-7,11-dihydroxy 8,8,10,12,16-pentamethyl-3-[1-methyl-2-(2-methyl-4-thiazolyl)ethenyl-4-aza-17-oxobicyclo[14.1.0]heptadecane-5,9-dione]
rate of oxidative metabolism [1]: 2.1 nmol/min/mg protein | rate of oxidative metabolism [2]: 1.3 nmol/min/mg protein | inhibition of CYP2C9 [3]: did not inhibit | excretion of intact Compound (A) in the bile [4]: < 1 % of the dose | inhibition of CYP2D6 [5]: did not inhibit | cytochrome P450 responsible for metabolism [6]: may be a substrate for CYP3A4 | rate of oxidative metabolism [7]: 1.2 nmol/min/mg protein | permeability coefficient (Pc) ([8]; Caco-2, 10 pM (Ca 5 pg/mL)): 9.4 ×10⁻⁶ cm/s | permeability coefficient (Pc) ([8]; Caco-2, 30 pM (Ca 15 pg/mL)): 10.5 ×10⁻⁶ cm/s | permeability coefficient (Pc) ([8]; Caco-2, 100 pM (Ca 50 pg/mL)): 12.8 ×10⁻⁶ cm/s | AUC(0-T), mean ([9]; 20 mg/m^2, IV): 796 ng·h/mL | TMAX, median ([9]; 20 mg/m^2, IV): 15 min | CMAX, mean ([9]; 20 mg/m^2, IV, N 3): 251 ng/mL | % F, mean [9, 10]: 43.5% | AUC(0-T), mean [9, 10]: 404 ng·h/mL | TMAX, median [9, 10]: 60 min | CMAX, mean ([9]; 20 mg/m^2, oral solution with buffer, N 3): 142 ng/mL | AUC(0-T), mean ([9]; 25 mg/m^2, IV): 848 ng·h/mL | TMAX, median ([9]; 25 mg/m^2, IV): 30 min | CMAX, mean ([9]; 25 mg/m^2, IV, N 11): 447 ng/mL | % F, mean [9, 11]: 55.6% | AUC(0-T), mean [9, 11]: 533 ng·h/mL | TMAX, median [9, 11]: 30 min | CMAX, mean ([9]; 25 mg/m^2, oral solution with buffer, N 11): 180 ng/mL | AUC(0-T), mean ([9]; 305 mg/m^2 as printed, IV): 1155 ng·h/mL | TMAX, median ([9]; 305 mg/m^2 as printed, IV): 30 min | CMAX, mean ([9]; 305 mg/m^2 as printed, IV, N 4): 711 ng/mL | % F, mean [9, 12]: 62.2% | AUC(0-T), mean [9, 12]: 708 ng·h/mL | TMAX, median [9, 12]: 30 min | CMAX, mean ([9]; 305 mg/m^2 as printed, oral solution with buffer, N 4): 274 ng/mL
